{
  "source": "patent US20230017786A1",
  "about": "“DEXTR[…] A DISEASE-MODIFYING TREATMENT FOR NEUROPSYCHIATRIC DISORDERS AND DISEASES” (priority 2020, published 2023)",
  "key": {"[1]": {"molecular_target": "T1, human NMDA receptor GluN1-GluN2D (Homo sapiens, UniProt O15399+Q05586)", "T1 construct": "expressed in transfected cells; host or cells: CHO", "T1 sequence (O15399 28-1336, other chains not shown)": "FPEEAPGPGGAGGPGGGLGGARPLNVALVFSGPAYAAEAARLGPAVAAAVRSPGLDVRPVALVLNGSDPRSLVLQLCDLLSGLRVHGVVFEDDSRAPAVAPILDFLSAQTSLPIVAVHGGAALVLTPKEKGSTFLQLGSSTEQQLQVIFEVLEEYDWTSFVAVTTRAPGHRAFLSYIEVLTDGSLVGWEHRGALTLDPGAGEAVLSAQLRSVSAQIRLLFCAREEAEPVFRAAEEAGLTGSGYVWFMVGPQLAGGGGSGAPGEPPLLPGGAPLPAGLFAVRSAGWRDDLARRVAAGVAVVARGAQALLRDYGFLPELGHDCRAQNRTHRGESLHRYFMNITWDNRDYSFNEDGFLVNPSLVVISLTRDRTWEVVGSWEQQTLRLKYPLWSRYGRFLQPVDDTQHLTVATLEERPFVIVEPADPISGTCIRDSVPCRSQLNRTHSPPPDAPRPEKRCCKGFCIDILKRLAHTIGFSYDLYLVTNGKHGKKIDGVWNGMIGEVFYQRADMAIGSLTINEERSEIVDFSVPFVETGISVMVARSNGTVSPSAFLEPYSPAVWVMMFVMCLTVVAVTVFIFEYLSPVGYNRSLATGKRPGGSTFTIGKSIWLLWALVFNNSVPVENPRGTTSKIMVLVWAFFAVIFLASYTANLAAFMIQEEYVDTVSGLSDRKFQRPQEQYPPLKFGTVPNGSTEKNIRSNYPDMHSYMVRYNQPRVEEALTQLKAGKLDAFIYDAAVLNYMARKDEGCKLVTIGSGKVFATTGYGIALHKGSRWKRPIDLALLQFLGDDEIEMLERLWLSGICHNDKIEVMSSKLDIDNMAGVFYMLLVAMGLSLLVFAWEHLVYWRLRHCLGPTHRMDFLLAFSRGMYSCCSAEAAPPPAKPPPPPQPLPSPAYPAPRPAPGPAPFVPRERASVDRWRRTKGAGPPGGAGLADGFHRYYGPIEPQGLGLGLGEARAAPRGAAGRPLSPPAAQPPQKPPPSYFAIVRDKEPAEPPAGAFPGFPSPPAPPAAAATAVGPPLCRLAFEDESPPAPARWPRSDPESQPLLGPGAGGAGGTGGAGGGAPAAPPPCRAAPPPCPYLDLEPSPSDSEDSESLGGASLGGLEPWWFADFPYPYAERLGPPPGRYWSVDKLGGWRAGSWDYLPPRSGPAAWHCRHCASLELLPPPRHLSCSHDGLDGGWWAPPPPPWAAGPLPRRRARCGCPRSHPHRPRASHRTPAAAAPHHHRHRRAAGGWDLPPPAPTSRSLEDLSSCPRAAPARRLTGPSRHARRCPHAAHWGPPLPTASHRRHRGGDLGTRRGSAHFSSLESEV", "assay": "FLIPR calcium assay, quinolinic acid, gentamicin, dextromethadone (Example 5 Part II), GluN1-GluN2D-CHO", "format": "cell-based", "conditions": "for calcium response (mean±SEM): GluN2D, n=42", "description": "(§1) Quinolinic acid or gentamicin CRCs were also produced, in presence of 10 μM glycine.\n(§2) Test items were evaluated in FLIPR for their ability to modulate, alone or in combination, calcium entry in presence of […], using four CHO cell lines expressing diheteromeric human NMDA receptor (NMDAR): GluN-/GluN2A-CHO, GluN1-GluN2B-CHO, GluN1-GluN2C-CHO, GluN1-GluN2D-CHO.\n(§3) The first aim of the study was to evaluate quinolinic acid or gentamicin CRC effect in the presence of 10 μM glycine.\n(§4) FLIPR determination of intracellular calcium level was used as a read-out for NMDAR activation.\n(§5) 400× compound plate was stored at −20° C. till FLIPR experimental day.\n(§6) A 4× compound plate was generated from 400× compound plate by addition of up to 30 μl/well of compound buffer on FLIPR experimental day.\n(§7) A FLIPR system was used to monitor intracellular calcium level in NMDAR cell lines, pre-loaded for 1 hour with Fluo-4, and then washed with assay buffer.\n(§8) Y=Bottom+(Top−Bottom)/(1+10^((LogEC50−X)*HillSlope))\n(§9) Test item CRC data were plotted by Prism 8 GraphPad software, in the different experimental conditions. And, column analysis, performed by Prism 8 GraphPad software, was one way ANOVA followed by Tukey's multiple comparisons test, with a single pooled variance."}, "[2]": {"molecular_target": "rat GluN1-GluN2B receptor (Rattus norvegicus, UniProt P35439+Q00960)", "conditions": "Banke and Traynelis, 2003; read-out: potency; cited from earlier work"}, "[3]": {"molecular_target": "T2, human NMDA receptor GluN1-GluN2A (Homo sapiens, UniProt Q05586+Q12879)", "T2 construct": "expressed in transfected cells; host or cells: CHO", "assay": "FLIPR calcium assay, quinolinic acid, gentamicin, dextromethadone (Example 5 Part II), GluN1-GluN2A-CHO", "format": "cell-based", "design": "calcium response (mean±SEM): unit not given here", "conditions": "for calcium response (mean±SEM): GluN2A, n=42", "description": "as §1, §2, §3, §4, §5, §6, §7, §8, §9"}, "[4]": {"molecular_target": "T3, human NMDA receptor GluN1-GluN2B (Homo sapiens, UniProt Q05586+Q13224)", "T3 construct": "expressed in transfected cells; host or cells: CHO", "T3 sequence (Q13224 27-1484, other chains not shown)": "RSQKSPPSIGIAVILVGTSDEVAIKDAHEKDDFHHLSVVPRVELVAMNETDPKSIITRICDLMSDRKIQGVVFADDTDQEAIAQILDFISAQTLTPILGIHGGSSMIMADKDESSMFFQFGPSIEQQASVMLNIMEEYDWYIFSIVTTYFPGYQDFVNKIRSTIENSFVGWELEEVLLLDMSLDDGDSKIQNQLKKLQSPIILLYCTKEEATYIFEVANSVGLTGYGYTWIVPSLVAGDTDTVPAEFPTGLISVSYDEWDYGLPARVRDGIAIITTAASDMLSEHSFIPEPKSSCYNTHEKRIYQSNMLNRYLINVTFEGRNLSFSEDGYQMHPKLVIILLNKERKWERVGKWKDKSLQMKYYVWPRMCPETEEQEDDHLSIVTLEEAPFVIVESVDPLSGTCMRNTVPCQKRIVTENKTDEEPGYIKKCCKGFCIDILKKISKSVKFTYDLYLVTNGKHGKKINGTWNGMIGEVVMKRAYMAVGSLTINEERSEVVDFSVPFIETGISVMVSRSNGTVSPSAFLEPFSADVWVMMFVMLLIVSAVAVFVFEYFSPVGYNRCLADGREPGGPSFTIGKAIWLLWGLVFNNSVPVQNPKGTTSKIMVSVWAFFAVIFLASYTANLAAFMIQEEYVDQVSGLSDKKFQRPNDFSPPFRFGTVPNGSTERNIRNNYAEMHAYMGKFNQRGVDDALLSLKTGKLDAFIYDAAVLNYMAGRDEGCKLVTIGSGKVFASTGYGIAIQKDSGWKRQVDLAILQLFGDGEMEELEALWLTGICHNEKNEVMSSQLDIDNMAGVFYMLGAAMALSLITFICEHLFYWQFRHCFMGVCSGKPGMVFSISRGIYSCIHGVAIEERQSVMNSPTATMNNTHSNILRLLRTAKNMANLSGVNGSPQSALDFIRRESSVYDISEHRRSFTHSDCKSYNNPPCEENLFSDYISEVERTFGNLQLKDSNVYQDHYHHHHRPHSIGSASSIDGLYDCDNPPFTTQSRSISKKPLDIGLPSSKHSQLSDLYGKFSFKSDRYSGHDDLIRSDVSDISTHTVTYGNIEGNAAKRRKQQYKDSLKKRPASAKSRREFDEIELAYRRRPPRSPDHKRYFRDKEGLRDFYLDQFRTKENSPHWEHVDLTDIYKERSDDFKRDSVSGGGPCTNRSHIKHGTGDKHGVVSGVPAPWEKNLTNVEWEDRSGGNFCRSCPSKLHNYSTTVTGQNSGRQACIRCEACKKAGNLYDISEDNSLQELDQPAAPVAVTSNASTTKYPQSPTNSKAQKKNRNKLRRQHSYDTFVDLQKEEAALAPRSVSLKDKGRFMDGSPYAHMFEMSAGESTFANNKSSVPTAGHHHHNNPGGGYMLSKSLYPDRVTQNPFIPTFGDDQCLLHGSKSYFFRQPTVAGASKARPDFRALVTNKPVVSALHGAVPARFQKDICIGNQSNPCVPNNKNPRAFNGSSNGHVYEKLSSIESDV", "assay": "FLIPR calcium assay, quinolinic acid, gentamicin, dextromethadone (Example 5 Part II), GluN1-GluN2B-CHO", "format": "cell-based", "conditions": "for calcium response (mean±SEM): GluN2B, n=42; for Response at max conc (%): quinolinic acid CRC, max 1,000 μM", "description": "as §1, §2, §3, §4, §5, §6, §7, §8, §9"}, "[5]": {"molecular_target": "T4, human NMDA receptor GluN1-GluN2C (Homo sapiens, UniProt Q05586+Q14957)", "T4 construct": "expressed in transfected cells; host or cells: CHO", "T4 sequence (Q14957 20-1233, other chains not shown)": "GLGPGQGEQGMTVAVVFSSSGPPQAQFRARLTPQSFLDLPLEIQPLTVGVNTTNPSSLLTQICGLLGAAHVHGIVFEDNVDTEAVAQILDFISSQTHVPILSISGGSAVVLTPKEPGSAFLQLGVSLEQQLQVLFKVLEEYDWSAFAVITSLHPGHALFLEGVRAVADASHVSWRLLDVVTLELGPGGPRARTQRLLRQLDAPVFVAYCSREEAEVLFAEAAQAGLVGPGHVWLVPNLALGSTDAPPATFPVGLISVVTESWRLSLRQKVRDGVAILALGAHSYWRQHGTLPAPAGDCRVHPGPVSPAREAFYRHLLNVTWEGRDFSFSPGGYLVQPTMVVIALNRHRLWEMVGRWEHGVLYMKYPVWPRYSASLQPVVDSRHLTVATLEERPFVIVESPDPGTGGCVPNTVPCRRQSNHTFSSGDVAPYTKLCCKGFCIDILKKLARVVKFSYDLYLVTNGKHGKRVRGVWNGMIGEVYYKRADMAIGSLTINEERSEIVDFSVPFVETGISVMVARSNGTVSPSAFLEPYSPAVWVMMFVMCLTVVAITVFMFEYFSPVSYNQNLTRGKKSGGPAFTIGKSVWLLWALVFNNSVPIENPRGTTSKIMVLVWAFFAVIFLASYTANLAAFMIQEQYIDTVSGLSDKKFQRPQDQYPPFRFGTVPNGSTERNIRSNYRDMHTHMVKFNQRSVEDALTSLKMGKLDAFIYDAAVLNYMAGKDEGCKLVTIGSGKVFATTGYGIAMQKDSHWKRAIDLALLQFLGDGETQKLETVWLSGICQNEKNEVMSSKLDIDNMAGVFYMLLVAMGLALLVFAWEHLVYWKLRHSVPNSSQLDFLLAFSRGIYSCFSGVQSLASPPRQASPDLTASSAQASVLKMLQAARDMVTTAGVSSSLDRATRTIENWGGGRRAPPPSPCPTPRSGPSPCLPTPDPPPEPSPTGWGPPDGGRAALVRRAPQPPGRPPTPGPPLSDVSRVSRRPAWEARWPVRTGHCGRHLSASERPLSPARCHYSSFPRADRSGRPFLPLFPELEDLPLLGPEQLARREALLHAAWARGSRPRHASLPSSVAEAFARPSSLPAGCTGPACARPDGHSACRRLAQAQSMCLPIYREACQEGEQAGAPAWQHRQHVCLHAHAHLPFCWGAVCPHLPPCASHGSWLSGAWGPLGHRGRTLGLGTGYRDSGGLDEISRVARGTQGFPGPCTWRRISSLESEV", "assay": "FLIPR calcium assay, quinolinic acid, gentamicin, dextromethadone (Example 5 Part II), GluN1-GluN2C-CHO", "format": "cell-based", "conditions": "for calcium response (mean±SEM): GluN2C, n=42", "description": "as §1, §2, §3, §4, §5, §6, §7, §8, §9"}, "[6]": {"conditions": "0.04 μM L-Glu + 100 μM QA, 10 μM glycine"}, "[7]": {"conditions": "0.04 μM L-Glu + 1000 μM QA, 10 μM glycine"}, "[8]": {"conditions": "0.2 μM L-Glu + 100 μM QA, 10 μM glycine"}, "[9]": {"conditions": "0.2 μM L-Glu + 1000 μM QA, 10 μM glycine"}, "[10]": {"conditions": "100 μM QA, 10 μM glycine, 100% = 10 μM L-glutamate plus 10 μM glycine"}, "[11]": {"conditions": "1000 μM QA, 10 μM glycine, 100% = 10 μM L-glutamate plus 10 μM glycine"}, "[12]": {"conditions": "1000 μM QA, 10 μM glycine, 100% = 10 μM L-glutamate plus 10 μM glycine, listed as QA"}, "[13]": {"conditions": "CRC in presence of 10 μM glycine"}, "[14]": {"conditions": "quinolinic acid CRC, max 1,000 μM, 10 μM glycine"}},
  "data": [
    {"smiles": "O=C(O)c1cccnc1C(=O)O", "note": "[Quinolinic acid]", "values": [
      {"measurement": "calcium response (mean±SEM)", "setting": "[1]; [6]", "value": "26 ± 1.2"},
      {"measurement": "calcium response (mean±SEM)", "setting": "[1]; [7]", "value": "53 ± 2.3"},
      {"measurement": "calcium response (mean±SEM)", "setting": "[1]; [8]", "value": "93 ± 1.0"},
      {"measurement": "calcium response (mean±SEM)", "setting": "[1]; [9]", "value": "58 ± 1.6"},
      {"measurement": "EC50", "setting": "[1]; 10 μM glycine, read-out: EC50", "value": 520, "unit": "µM"},
      {"measurement": "% effect on calcium entry, 100 QA", "setting": "[1]; [10]", "value": "−0.1 ± 0.4", "unit": "%"},
      {"measurement": "calcium response (mean±SEM)", "setting": "[1]; 1000 μM QA, 10 μM glycine", "value": "55 ± 1.1"},
      {"measurement": "% effect on calcium entry, 1000 QA", "setting": "[1]; [11]", "value": "55±1.1", "unit": "%"},
      {"measurement": "% effect on calcium entry, 1000 QA", "setting": "[1]; [12]", "value": "55 ± 1.1", "unit": "%"},
      {"measurement": "Minimal response (%)", "setting": "[1]; [13]", "value": "−1.3", "unit": "%"},
      {"measurement": "Response at max conc (%)", "setting": "[1]; [14]", "value": 50, "unit": "%"},
      {"measurement": "EC50", "setting": "[2]", "value": "518 ± 35", "unit": "µM"},
      {"measurement": "calcium response (mean±SEM)", "setting": "[3]; [6]", "value": "7.5 ± 0.4"},
      {"measurement": "calcium response (mean±SEM)", "setting": "[3]; [7]", "value": "41 ± 1.0"},
      {"measurement": "calcium response (mean±SEM)", "setting": "[3]; [8]", "value": "26 ± 0.6"},
      {"measurement": "calcium response (mean±SEM)", "setting": "[3]; [9]", "value": "46 ± 0.9"},
      {"measurement": "EC50", "setting": "[3]; 10 μM glycine, fit with maximal response constrained at 75%, read-out: EC50", "value": 850, "unit": "µM"},
      {"measurement": "% effect on calcium entry, 100 QA", "setting": "[3]; [10]", "value": "2.5 ± 0.3", "unit": "%"},
      {"measurement": "calcium response (mean±SEM)", "setting": "[3]; 1000 μM QA, 10 μM glycine", "value": "41 ± 1.2"},
      {"measurement": "% effect on calcium entry, 1000 QA", "setting": "[3]; [11]", "value": "41±1.1", "unit": "%"},
      {"measurement": "% effect on calcium entry, 1000 QA", "setting": "[3]; [12]", "value": "41 ± 1.2", "unit": "%"},
      {"measurement": "% effect on calcium entry, 1000 QA", "setting": "[3]; 1000 μM QA, 10 μM glycine, 100% = 10 μM L-glutamate plus 10 μM glycine, listed as quinolinic acid", "value": "41±1.2", "unit": "%"},
      {"measurement": "Minimal response (%)", "setting": "[3]; [13]", "value": "−1.9", "unit": "%"},
      {"measurement": "Response at max conc (%)", "setting": "[3]; [14]", "value": 40, "unit": "%"},
      {"measurement": "calcium response (mean±SEM)", "setting": "[4]; [6]", "value": "3.7 ± 1.3"},
      {"measurement": "calcium response (mean±SEM)", "setting": "[4]; [7]", "value": "27 ± 2.2"},
      {"measurement": "calcium response (mean±SEM)", "setting": "[4]; [8]", "value": "27 ± 0.8"},
      {"measurement": "calcium response (mean±SEM)", "setting": "[4]; [9]", "value": "27 ± 1.5"},
      {"measurement": "EC50", "setting": "[4]; 10 μM glycine, read-out: EC50", "value": 170, "unit": "µM"},
      {"measurement": "% effect on calcium entry, 100 QA", "setting": "[4]; [10]", "value": "0.9 ± 0.7", "unit": "%"},
      {"measurement": "calcium entry in CRC", "setting": "[4]; 333 μM quinolinic acid, 10 μM glycine", "value": "23±3.0", "unit": "%"},
      {"measurement": "calcium response (mean±SEM)", "setting": "[4]; 1000 μM QA, 10 μM glycine", "value": "37 ± 1.3"},
      {"measurement": "% effect on calcium entry, 1000 QA", "setting": "[4]; [11]", "value": "37±1.3", "unit": "%"},
      {"measurement": "% effect on calcium entry, 1000 QA", "setting": "[4]; [12]", "value": "37 ± 1.3", "unit": "%"},
      {"measurement": "Minimal response (%)", "setting": "[4]; [13]", "value": "−2.1", "unit": "%"},
      {"measurement": "Response at max conc (%)", "setting": "[4]; 10 μM glycine", "value": 25, "unit": "%"},
      {"measurement": "Response at max conc (%)", "setting": "[4]; 10 μM glycine, listed as quinolinic acid", "value": "25±2.1", "unit": "%"},
      {"measurement": "calcium response (mean±SEM)", "setting": "[5]; [6]", "value": "−2.0 ± 1.1"},
      {"measurement": "calcium response (mean±SEM)", "setting": "[5]; [7]", "value": "−4.1 ± 0.9^"},
      {"measurement": "calcium response (mean±SEM)", "setting": "[5]; [8]", "value": "27 ± 1.1"},
      {"measurement": "calcium response (mean±SEM)", "setting": "[5]; [9]", "value": "6.6 ± 0.8"},
      {"measurement": "EC50", "setting": "[5]; 10 μM glycine, read-out: EC50", "value": "> 1", "unit": "mM"},
      {"measurement": "% effect on calcium entry, 100 QA", "setting": "[5]; [10]", "value": "−2.8 ± 0.6", "unit": "%"},
      {"measurement": "calcium response (mean±SEM)", "setting": "[5]; 1000 μM QA, 10 μM glycine", "value": "−5.5 ± 0.4^"},
      {"measurement": "% effect on calcium entry, 1000 QA", "setting": "[5]; [11]", "value": "−5.5 ± 0.4^ %"},
      {"measurement": "Minimal response (%)", "setting": "[5]; [13]", "value": "−4.0", "unit": "%"},
      {"measurement": "intracellular calcium increase elicited by 0.2 μM L-glutamate", "setting": "[5]; plus 1000 μM quinolinic acid, 10 μM glycine", "value": "6.6±0.8", "unit": "%"},
      {"measurement": "Response at max conc (%)", "setting": "[5]; [14]", "value": "−4.0", "unit": "%"}
    ]}
  ]
}
